Source: PMC9419992 (Organic letters, 2022)

Legend:
[1] = biological target: T1, LXRα [NR1H3] ligand binding domain (Homo sapiens, UniProt Q13133); assay: Radioligand binding assay with 3H-T0901317, LXRα ligand binding domain
T1 sequence (Q13133 209-447 limits assumed): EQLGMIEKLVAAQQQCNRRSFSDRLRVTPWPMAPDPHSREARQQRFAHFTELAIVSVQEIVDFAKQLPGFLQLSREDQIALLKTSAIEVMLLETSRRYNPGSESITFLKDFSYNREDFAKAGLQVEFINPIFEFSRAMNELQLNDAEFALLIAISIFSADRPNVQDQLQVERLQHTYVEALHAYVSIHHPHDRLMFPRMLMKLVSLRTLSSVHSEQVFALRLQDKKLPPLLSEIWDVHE

[2] = system: ABCA1 expression (LXR target gene) in THP-1 cells; assay: Expression of LXR target gene ABCA1 in THP-1 monocytic cell line; format: cell-based, human; conditions: compound at 10 μM
[3] = biological target: T2, LXRβ [NR1H2] ligand binding domain (Homo sapiens, UniProt P55055); assay: Radioligand binding assay with 3H-T0901317, LXRβ ligand binding domain
T2 sequence (P55055 222-460 limits assumed): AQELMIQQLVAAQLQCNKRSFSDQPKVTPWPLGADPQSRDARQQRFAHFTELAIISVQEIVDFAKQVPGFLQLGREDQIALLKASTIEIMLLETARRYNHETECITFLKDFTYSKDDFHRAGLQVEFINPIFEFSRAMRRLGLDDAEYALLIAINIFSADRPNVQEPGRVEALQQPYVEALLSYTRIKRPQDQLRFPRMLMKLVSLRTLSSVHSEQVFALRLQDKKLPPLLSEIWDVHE

C[C@H](CCCC(C)(C)O)[C@H]1CC[C@H]2[C@@H]3CC=C4C[C@@H](O)CC[C@]4(C)[C@H]3CC[C@]12C [25-hydroxycholesterol]
Ki [1]: 4 µM | ABCA1 expression [2]: increased the expression of ABCA1 as well, albeit at lower levels than T0901317 | Ki [3]: 6.9 µM

O=S(=O)(c1ccccc1)N(CC(F)(F)F)c1ccc(C(O)(C(F)(F)F)C(F)(F)F)cc1 [Compound T0901317, T0901317]
ABCA1 expression [2]: increasing the expression of ABCA1
